pIC50: −log10 of the molar value. Structures can show the parent of a compound that is named as a salt.
Columns and labels:
human TLR7 = target: T1, human TLR7 (Homo sapiens, UniProt Q9NYK1); assay: TLR7 inhibition reporter assay (HEK-Blue cells, SEAP reporter, gardiquimod stimulation); type: cell-based; settings: HEK-Blue cells overexpressing human TLR7, gardiquimod 7.5 μM
T1 construct: host or cells: HEK-Blue cells
T1 sequence (Q9NYK1 27-1049): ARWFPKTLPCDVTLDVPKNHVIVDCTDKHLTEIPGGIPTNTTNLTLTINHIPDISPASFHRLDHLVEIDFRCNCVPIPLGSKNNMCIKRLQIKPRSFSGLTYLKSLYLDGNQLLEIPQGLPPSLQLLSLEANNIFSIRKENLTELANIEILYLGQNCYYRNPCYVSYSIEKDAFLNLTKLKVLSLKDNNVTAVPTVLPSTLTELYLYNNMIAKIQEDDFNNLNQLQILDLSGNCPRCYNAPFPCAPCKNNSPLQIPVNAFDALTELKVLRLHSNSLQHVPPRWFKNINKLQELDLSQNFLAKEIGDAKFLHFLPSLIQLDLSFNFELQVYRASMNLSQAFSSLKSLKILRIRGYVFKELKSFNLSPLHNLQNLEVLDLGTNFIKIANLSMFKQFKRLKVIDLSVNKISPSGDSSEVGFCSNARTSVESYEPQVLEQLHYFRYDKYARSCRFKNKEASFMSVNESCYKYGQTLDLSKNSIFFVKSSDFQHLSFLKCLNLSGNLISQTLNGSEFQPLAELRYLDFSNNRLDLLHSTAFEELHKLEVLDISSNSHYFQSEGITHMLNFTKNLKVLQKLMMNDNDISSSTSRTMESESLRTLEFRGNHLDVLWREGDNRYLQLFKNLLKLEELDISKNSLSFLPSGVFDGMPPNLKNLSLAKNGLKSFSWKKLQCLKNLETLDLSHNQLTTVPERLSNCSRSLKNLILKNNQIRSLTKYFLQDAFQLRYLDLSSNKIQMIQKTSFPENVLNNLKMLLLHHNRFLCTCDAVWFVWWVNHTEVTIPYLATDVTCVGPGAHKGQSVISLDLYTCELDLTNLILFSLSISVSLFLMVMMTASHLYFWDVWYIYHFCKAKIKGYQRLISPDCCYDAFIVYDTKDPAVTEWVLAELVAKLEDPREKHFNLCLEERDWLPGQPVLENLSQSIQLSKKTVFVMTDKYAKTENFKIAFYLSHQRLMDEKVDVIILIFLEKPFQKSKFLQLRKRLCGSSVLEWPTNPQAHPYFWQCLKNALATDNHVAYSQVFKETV
Procedure, shortened: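 22 h, 37° C, 5% CO2 incubation; compounds 0.05 nM-50 μM final; TLR7 cells 15000/well, TLR8 20,000/well. Readout: SEAP via HEK-Blue Detection medium. % inhibition = signal reduction versus agonist + DMSO wells, referenced to known inhibitor.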

human TLR9 = target: T2, human TLR9 (Homo sapiens, UniProt Q9NR96); assay: TLR9 inhibition reporter assay (HEK-Blue cells, SEAP reporter, ODN2006 stimulation); type: cell-based; settings: HEK-Blue cells overexpressing human TLR9, ODN2006 5 nM
T2 construct: host or cells: HEK-Blue cells
T2 sequence (Q9NR96 26-1032): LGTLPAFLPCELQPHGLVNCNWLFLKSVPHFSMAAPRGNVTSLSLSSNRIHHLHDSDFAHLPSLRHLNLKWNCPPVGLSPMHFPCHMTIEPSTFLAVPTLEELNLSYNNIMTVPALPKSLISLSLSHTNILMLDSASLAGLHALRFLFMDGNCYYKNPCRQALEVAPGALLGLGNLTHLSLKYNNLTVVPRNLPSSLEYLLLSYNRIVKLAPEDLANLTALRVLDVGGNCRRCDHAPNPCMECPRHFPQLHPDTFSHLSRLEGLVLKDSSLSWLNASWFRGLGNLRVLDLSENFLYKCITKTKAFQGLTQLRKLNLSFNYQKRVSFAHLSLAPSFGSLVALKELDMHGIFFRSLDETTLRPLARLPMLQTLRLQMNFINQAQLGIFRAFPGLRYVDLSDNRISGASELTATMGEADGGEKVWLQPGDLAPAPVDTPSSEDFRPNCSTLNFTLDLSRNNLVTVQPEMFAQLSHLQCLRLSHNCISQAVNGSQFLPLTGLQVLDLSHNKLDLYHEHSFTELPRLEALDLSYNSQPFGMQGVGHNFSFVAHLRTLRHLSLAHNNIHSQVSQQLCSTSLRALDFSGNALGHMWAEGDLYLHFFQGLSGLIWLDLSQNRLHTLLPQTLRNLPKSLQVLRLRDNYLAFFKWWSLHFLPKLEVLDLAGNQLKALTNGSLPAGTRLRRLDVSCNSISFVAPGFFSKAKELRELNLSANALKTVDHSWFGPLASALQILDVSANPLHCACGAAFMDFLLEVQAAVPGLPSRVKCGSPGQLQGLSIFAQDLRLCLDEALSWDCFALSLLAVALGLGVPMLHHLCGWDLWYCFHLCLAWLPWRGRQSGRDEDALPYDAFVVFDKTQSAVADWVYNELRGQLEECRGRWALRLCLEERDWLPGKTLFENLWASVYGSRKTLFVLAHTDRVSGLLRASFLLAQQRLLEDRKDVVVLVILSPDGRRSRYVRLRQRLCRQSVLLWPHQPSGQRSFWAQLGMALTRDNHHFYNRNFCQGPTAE
Procedure, shortened: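 Compound treatment: 30 min, RT, 0.05 nM–50 μM final. Agonist: TLR7 gardiquimod 7.5 μM; TLR8 R848 15.9 μM; TLR9 ODN2006 5 nM. Incubation 22 h, 37 °C, 5% CO2. Readout SEAP, HEK-Blue Detection.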

pIC50 (human TLR7) | pIC50 (human TLR9) | Compound
7.64 | 6.36 | COc1ccc(-c2[nH]c3ccc(C4CCN(CC(=O)N(C)CCN(C)C)CC4)cc3c2CC(F)(F)F)cc1OC [Example 367, 2-(4-(2-(3,4-dimethoxyphenyl)-3-(2,2,2-trifluoroethyl)-1H-indol-5-yl)piperidin-1-yl)-N-(2-(dimethylamino)ethyl)-N-methylacetamide]
7.48 | 6.13 | COc1ccc(-c2[nH]c3ccc(C4CCN(CC(=O)NCCN(C)C)CC4)cc3c2CC(F)(F)F)cc1OC [Example 380, 2-(4-(2-(3,4-dimethoxyphenyl)-3-(2,2,2-trifluoroethyl)-1H-indol-5-yl)piperidin-1-yl)-N-(2-(dimethylamino)ethyl)acetamide]
6.57 | ≤ 4.30 | COc1ccc(-c2[nH]c3ccc(C4CCNCC4(F)F)cc3c2C(C)C)cc1OC (stereo not drawn) [Example 325, 5-(3,3-difluoropiperidin-4-yl)-2-(3,4-dimethoxyphenyl)-3-isopropyl-1H-indole]
6.20 | 5.27 | CCN(CC)C(=O)C1CCCN(CC(=O)N2CCC(c3ccc4[nH]c(-c5ccc(OC)c(OC)c5)c(C5CCOCC5)c4c3)CC2)C1 (stereo not drawn) [Example 391, 1-(2-(4-(2-(3,4-dimethoxyphenyl)-3-(tetrahydro-2H-pyran-4-yl)-1H-indol-5-yl)piperidin-1-yl)-2-oxoethyl)-N,N-diethylpiperidine-3-carboxamide]
7.19 | 5.94 | COc1ccc(-c2[nH]c3ccc(C4CCN(CC(=O)N5CCN(C(C)C)CC5)CC4)cc3c2CC(F)(F)F)cc1OC [Example 362, 2-(4-(2-(3,4-dimethoxyphenyl)-3-(2,2,2-trifluoroethyl)-1H-indol-5-yl)piperidin-1-yl)-1-(4-isopropylpiperazin-1-yl)ethan-1-one]
7.54 | 6.15 | COc1ccc(-c2[nH]c3ccc(C4CCN(CC(=O)NCCN5CCCC5)CC4)cc3c2CC(F)(F)F)cc1OC [Example 375, 2-(4-(2-(3,4-dimethoxyphenyl)-3-(2,2,2-trifluoroethyl)-1H-indol-5-yl)piperidin-1-yl)-N-(2-(pyrrolidin-1-yl)ethyl)acetamide]
5.86 | 5.56 | COc1ccc(-c2[nH]c3ccc(C4CCN(C(=O)CN[C@H](C)C(C)C)CC4)cc3c2C2CCOCC2)cc1OC [Example 394, (R)-1-(4-(2-(3,4-dimethoxyphenyl)-3-(tetrahydro-2H-pyran-4-yl)-1H-indol-5-yl)piperidin-1-yl)-2-((3-methylbutan-2-yl)amino)ethan-1-one]
6.48 | ≤ 4.30 | COc1ccc(-c2[nH]c3ccc(C4CCN(C(=O)CC(F)(F)F)CC4)cc3c2CC(F)(F)F)cc1OC [Example 339, 1-(4-(2-(3,4-dimethoxyphenyl)-3-(2,2,2-trifluoroethyl)-1H-indol-5-yl)piperidin-1-yl)-3,3,3-trifluoropropan-1-one]
7.20 | 5.23 | COc1ccc(-c2[nH]c3ccc(C4CCN(CC(=O)NCC#N)CC4)cc3c2CC(F)(F)F)cc1OC [Example 381, N-(cyanomethyl)-2-(4-(2-(3,4-dimethoxyphenyl)-3-(2,2,2-trifluoroethyl)-1H-indol-5-yl)piperidin-1-yl)acetamide]
7.21 | 4.88 | COc1ccc(-c2[nH]c3ccc(C4CCN(C(=O)CN(C)C)CC4)cc3c2C(O)C(F)(F)F)cc1OC (stereo not drawn) [Example 395, 1-(4-(2-(3,4-dimethoxyphenyl)-3-(2,2,2-trifluoro-1-hydroxyethyl)-1H-indol-5-yl)piperidin-1-yl)-2-(dimethylamino)ethan-1-one]
7.85 | 6.72 | COc1ccc(-c2[nH]c3ccc(C4CCN(CC(=O)N(C)CCCN(C)C)CC4)cc3c2CC(F)(F)F)cc1OC [Example 365, 2-(4-(2-(3,4-dimethoxyphenyl)-3-(2,2,2-trifluoroethyl)-1H-indol-5-yl)piperidin-1-yl)-N-(3-(dimethylamino)propyl)-N-methylacetamide]
6.00 | 5.07 | COc1ccc(-c2[nH]c3ccc(C4CCN(CC(=O)Nc5cc(C(C)(C)C)[nH]n5)CC4)cc3c2CC(F)(F)F)cc1OC [Example 387, N-(5-(tert-butyl)-1H-pyrazol-3-yl)-2-(4-(2-(3,4-dimethoxyphenyl)-3-(2,2,2-trifluoroethyl)-1H-indol-5-yl)piperidin-1-yl)acetamide]
7.80 | 6.41 | COc1ccc(-c2[nH]c3ccc(C4CCN(CC(=O)NCCC5CCCN5C)CC4)cc3c2CC(F)(F)F)cc1OC (stereo not drawn) [Example 360, 2-(4-(2-(3,4-dimethoxyphenyl)-3-(2,2,2-trifluoroethyl)-1H-indol-5-yl)piperidin-1-yl)-N-(2-(1-methylpyrrolidin-2-yl)ethyl) acetamide]
6.20 | ≤ 4.30 | COc1ccc(-c2[nH]c3ccc(C4CCN(C(=O)CCC(F)(F)F)CC4)cc3c2CC(F)(F)F)cc1OC [Example 350, 1-(4-(2-(3,4-dimethoxyphenyl)-3-(2,2,2-trifluoroethyl)-1H-indol-5-yl)piperidin-1-yl)-4,4,4-trifluorobutan-1-one]
4.74 | 4.87 | COc1ccc(-c2[nH]c3ccc(C4CCN(C(=O)CNC[C@@H](O)CO)CC4)cc3c2C)cc1OC [Example 405, (R)-2-((2,3-dihydroxypropyl)amino)-1-(4-(2-(3,4-dimethoxyphenyl)-3-methyl-1H-indol-5-yl)piperidin-1-yl)ethan-1-one]
7.33 | 5.47 | CCc1c(-c2ccc(OC)c(OC)c2)[nH]c2cc(C)c(C3CCNCC3)cc12 [Example 396, 2-(3,4-dimethoxyphenyl)-3-ethyl-6-methyl-5-(piperidin-4-yl)-1H-indole, HCl]
7.03 | ≤ 4.30 | COc1ccc(-c2[nH]c3ccc(C4CCN(C(=O)CCC(N)=O)CC4)cc3c2CC(F)(F)F)cc1OC [Example 333, 4-(4-(2-(3,4-dimethoxyphenyl)-3-(2,2,2-trifluoroethyl)-1H-indol-5-yl)piperidin-1-yl)-4-oxobutanamide]
7.29 | 5.45 | COc1ccc(-c2[nH]c3ccc(C4CCNCC4F)cc3c2C(C)C)cc1OC (single isomer, unassigned) [Example 324, 2-(3,4-dimethoxyphenyl)-5-(3-fluoropiperidin-4-yl)-3-isopropyl-1H-indole]
